As usually defined, the inhibition is the change of the read-out against control, counted positive when it falls.

The values that follow come from US9035056B2, “Pyrido[4,3-b]indole and pyrido[3,4-b]indole derivatives and methods of use” (Medivation Technologies, Inc., priority 2011, dated 2015).

Molecules are shown by their SMILES.

In assay [1] the target is T1, human recombinant adrenergic α2C receptor (Homo sapiens, UniProt P18825).
T1 construct: expressed in transfected cells; host or cells: insect Sf9 cells
T1 sequence (P18825 1-462): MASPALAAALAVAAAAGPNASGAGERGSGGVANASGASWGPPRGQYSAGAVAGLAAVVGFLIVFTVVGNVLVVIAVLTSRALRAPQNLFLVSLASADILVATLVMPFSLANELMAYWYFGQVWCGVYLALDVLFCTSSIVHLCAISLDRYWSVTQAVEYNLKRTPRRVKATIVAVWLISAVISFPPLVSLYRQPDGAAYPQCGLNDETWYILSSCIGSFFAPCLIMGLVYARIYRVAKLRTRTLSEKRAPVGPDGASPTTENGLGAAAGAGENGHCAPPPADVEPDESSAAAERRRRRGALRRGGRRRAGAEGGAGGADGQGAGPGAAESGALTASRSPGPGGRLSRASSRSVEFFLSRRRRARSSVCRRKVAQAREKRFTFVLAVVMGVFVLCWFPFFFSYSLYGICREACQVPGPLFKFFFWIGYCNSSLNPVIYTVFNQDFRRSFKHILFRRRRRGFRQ
Description: Adrenergic α2C radioligand binding ([3H]MK-912). The note with it: 0.1 μM compound; read-out: Percentage inhibition of ligand binding, Adrenergic α2C. How it is done:
To evaluate in radioligand binding assays the activity of compounds of the invention, human recombinant adrenergic α2C receptor expressed in insect Sf9 cells (Uhlen, S. et al, J. Pharmacol. Exp. Ther. 271:1558, 1994) in a modified Tris-HCl buffer (50 mM Tris-HCl, pH 7.4, 12.5 mM MgCl2, 2 mM EDTA) was used. Compounds of the invention were incubated with 1 nM [^3H]MK-912 for 60 min at 25° C. Non-specific binding was estimated in the presence of 10 μM WB-4101. Receptor proteins were filtered and washed, the filters were then counted to determine [^3H]MK-912 specifically bound. Compounds were screened at 1 μM or lower, using 1% DMSO as vehicle. Biochemical assay results are presented as the percent inhibition of specific binding in Table 3.

The target in assay [2] is T2, rat adrenergic α1A receptor (Rattus norvegicus, UniProt P43140).
T2 construct: rat adrenergic α1A receptor obtained from Wistar Rat submaxillary glands; from tissue; host or cells: Wistar rat submaxillary glands
T2 sequence (P43140 1-466): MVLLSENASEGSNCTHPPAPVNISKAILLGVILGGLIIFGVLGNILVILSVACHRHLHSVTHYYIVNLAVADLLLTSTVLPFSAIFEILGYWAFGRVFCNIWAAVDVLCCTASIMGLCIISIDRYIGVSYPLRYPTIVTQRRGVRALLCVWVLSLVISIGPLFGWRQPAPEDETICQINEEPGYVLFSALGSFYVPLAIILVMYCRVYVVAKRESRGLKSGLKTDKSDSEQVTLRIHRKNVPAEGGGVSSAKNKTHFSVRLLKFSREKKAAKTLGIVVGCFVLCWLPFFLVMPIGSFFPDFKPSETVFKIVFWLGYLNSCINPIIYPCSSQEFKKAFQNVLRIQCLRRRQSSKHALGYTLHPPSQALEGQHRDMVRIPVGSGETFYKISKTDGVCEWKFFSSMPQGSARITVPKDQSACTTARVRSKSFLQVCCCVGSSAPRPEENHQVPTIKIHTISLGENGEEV
Description: Adrenergic α1A radioligand binding ([3H]Prazosin). The note with it: 0.1 μM compound; read-out: Percentage inhibition of ligand binding, Adrenergic α1A. The protocol:
To evaluate in radioligand binding assays the activity of compounds of the invention, rat adrenergic α1A receptor obtained from Wistar Rat submaxillary glands (Michel, A. et al, Br. J. Pharmacol. 98:883, 1989) in a modified Tris-HCl buffer (50 mM Tris-HCl buffer, pH 7.4, 0.5 mM EDTA) was used. Compounds of the invention were incubated with 0.25 nM [^3H]Prazosin for 60 min at 25° C. Non-specific binding was estimated in the presence of 10 μM phentolamine. Receptor proteins were filtered and washed, the filters were then counted to determine [^3H]Prazosin specifically bound. Compounds of the invention were screened at 1 μM or lower, using 1% DMSO as vehicle. Biochemical assay results are presented as the percent inhibition of specific binding in Table 3.

For the compound `Cc1ccc2c(c1)c1c(n2/C=C2/CCCc3ccccc32)CCN(C)C1` [i-2], the figures for the inhibition at 0.1 µM in assay [1] and in assay [2] were 90% and 51%, respectively.
Taken in the same sequence, the figures for `Cc1ccc2c(c1)c1c(n2/C=C2\CCCc3ccccc32)CCN(C)C1` [i-3] were 72% and 18%.
